Literature values as cited in patent publication USRE45822E1, “Oral dosage form comprising a therapeutic agent and an adverse-effect agent” (Purdue Pharma L.P., priority 2001, dated 2015).

Conditions: administered orally; retain much of their efficacy

SMILES: C[C@H]1[C@H]2Cc3ccc(O)cc3[C@]1(C)CCN2CC1CC1 [cyclazocine]
- duration of action: ~24 h

SMILES: O=C1CC[C@@]2(O)[C@H]3Cc4ccc(O)c5c4[C@@]2(CCN3CC2CC2)[C@H]1O5 [naltrexone]
- duration of action: ~24 h
